The test system of this series is cryopreserved hepatocytes. Description: Stability in cryopreserved minipig hepatocytes. To be noted: 10 μM, after 4 hours of incubation. The series is classed as in vitro ADME. As to the method: The formation of SRA737-related metabolites was determined in cryopreserved hepatocytes from human, mouse, rat, dog, minipig and monkey samples after incubation with SRA737 at a nominal concentration of 10 μM for up to 4 hours. […] In the human hepatocyte preparation, approximately 67% of the parent remained after 4 hours of incubation compared to 75% and 7% in the rat and minipig preparations, respectively. Eight human SRA737 metabolites were observed. All SRA737 metabolites formed by human hepatocytes were also formed by monkey hepatocytes. Six metabolites were present at equal or greater abundance in the monkey.

Consider `N#Cc1cnc(Nc2cc(NCC3CNCCO3)c(C(F)(F)F)cn2)cn1` (stereo not shown) [SRA737, 5-[[4-[[morpholin-2-yl]methylamino]-5-(trifluoromethyl)-2-pyridyl]amino]pyrazine-2-carbonitrile], for which the parent remaining came out at 7%.

For the origin of these results see patent publication US20220226338A1, “Methods of Treating Cancer Using CHK1 Inhibitors” (Sierra Oncology, Inc., priority 2019, published 2022).
